Results on one compound are retold here after patent US9212204B2, “Treatment of rett syndrome using glycyl-L-2-methylprolyl-L-glutamic acid” (priority 2011, dated 2015).

Data set [1] in a line: Pharmacokinetics after intravenous bolus injection. Particulars: 30 mg/kg single i.v. bolus; rat. The format is in vivo, rat. On the procedure:
Adult male Wistar rats weighing between 180 and 240 g were used to determine the pharmacokinetics of GPE and […]. To facilitate intravenous bolus injections and blood sampling, all rats were surgically implanted with an indwelling jugular venous cannula under halothane anesthesia three days before the experiment. Groups of six rats were given a single intravenous bolus injection of either 30 mg/kg GPE or 10 mg/kg […] dissolved in 0.1M succinate buffer (pH 6.5). […] The samples were centrifuged at 3000 g for 15 min at 4° C. and the plasma removed and stored at -80° C. until extraction and assay by either radioimmunoassay (“RIA”) or reverse phase HPLC. The RIA and HPLC methods used were conventional. […] The k and half-life (t1/2) were calculated from the slope of the linear regression line in the elimination phase of the semi-logarithmic plot of plasma concentration versus time as: Log. C=-kt/2.3+log C0. Results were expressed as mean±standard error.

Data set [2] can be described thus: Degradation of GPE in vivo and in vitro.
For data set [3], the system named is cortical neurons injured with okadaic acid. As to the kind of experiment: Okadaic acid injury of cortical cultures, MTT survival. The note with it: 10 μM, 24 hours incubation, MTT-assay. The format is cell-based, rat. On the procedure:
One cortical hemisphere from a postnatal day 1 rat was used and collected into 4 ml of DMEM. Trituration was performed using a 5 ml glass pipette and an 18-gauge needle. The cell suspension was sieved through a 100 μm cell strainer and washed in 50 ml DMEM (centrifugation for 5 min at 250 g). The sediment was resuspended in 20 ml DMEM+10% fetal calf serum. The suspension was added into two […] flasks (10 ml per flask) and cultivated at 37° C. in the presence of 10% CO2 followed by a change of the medium twice a week. When cells reached confluence, they were washed three times with PBS, adjusted to Neurobasal/B27 and incubated for another 3 days. This supernatant was frozen for transient storage at −80° C. […]
The cells were triturated once with a glass Pasteur pipette in 1 ml of Neurobasal/B27 medium and subsequently twice by using a 1 ml insulin syringe with a 22 gauge needle. […] Cells were counted and adjusted to 50,000 cells per 60 μl. […]
To cause toxic injury to neurons, we exposed neurons to 1:100 parts of okadaic acid at concentrations of 30 nM or 100 nM and 0.5 mM 3-nitropropionic acid (for cerebellar microexplants only). […] The survival rate was determined by a colorimetric end-point MTT-assay at 595 nm in a multi-well plate reader. For the cerebellar microexplants four windows (field of 0.65 mm^2) with highest cell density were chosen and cells displaying neurite outgrowth were counted.
(In general: Formazan colour is commonly taken as a measure of viable cells.)

In another data set the test system is wild type young mice. Particulars: Tropea et al., 2006; cited from earlier work.
In another data set the test system is MeCP2 knock-out mice. The note with it: U.S. Publication No. 2009/0099077; cited from earlier work.

`NCC(=O)N1CCC[C@H]1C(=O)N[C@@H](CCC(=O)O)C(=O)O` [GPE, glycyl-L-prolyl-L-glutamic acid]: the first order rate constant in data set [1] turned out to be 0.15 ± 0.014 min⁻¹. In addition, the degradation result in data set [2] is given as “rapidly degraded”. This compound also yielded a neuroprotection in data set [3] of 64%. In the data set on wild type young mice, the OD plasticity entry is reported as “reduce”. In the data set on MeCP2 knock-out mice, the “effect on life span” value is “prolong life” and the “effect on neuronal function” value is given as “increase neuronal function”.
